Results as given in US20240009105A1, “TETRAPEPTIDE AND COMPOSITIONS COMPRISING TETRAPEPTIDES” (THE BOOTS COMPANY PLC, priority 2020, published 2024).
Marks after values point to notes of the source that are not given here.

System: Fibrillin 1
Test: Fibrillin 1 expression in primary human dermal fibroblasts by immunofluorescence
Format: cell-based
Details: HDF cells, 10 ppm peptide, cultured 5 days, immunofluorescence fibre density
Experimental: The synergistic activity of the tetrapeptides of the present invention were assessed to determine the expression of dermal extracellular protein Fibrillin 1 using immunofluorescence.
Primary Human dermal fibroblast (HDFs) cells were purchased from Promo Cell and came from a donor. Cells were grown in wells of 96-well black walled, clear bottomed, plates (as purchased from Pierce, Thermo Fisher). Cells were cultured in Human Dermal Fibroblast media (PromoCell) supplemented with Basic Fibroblast Growth Factor (recombinant human), 1 ng/ml and Insulin 5 μg/mL Cells were cultured for 5 days in the presence of the tetrapeptides combination of the present invention, changing media and peptides every 48 hours, followed by immunofluorescence assessment. At the time of treatment cells were at passage 3-4. After 5 days the media was discarded, and cells fixed with methanol. […]
The antibody binding to Fibrillin 1 fibres was visualised using a Nikon Eclipse 100 microscope fluorescence setting using an excitation lens for fluorescein isothiocyanate (FITC). […] Image-J software was used to quantify the Fibrillin 1 fibre abundance and coverage in each image using a threshold of 235 measuring the fibre density.
Results are expressed as an average percentage increase in fibrillin abundance compared to untreated control.

Row | Substance | Fibrillin 1 (average percentage increase in fibrillin abundance compared to untreated control)
1 | Pal-GPKG-OH | +131%^a
2 | Pal-LSVD-OH | +185%^a
